Source: patent publication US9827198B2, “Pharmaceutical dosage forms comprising sodium-1-[6-(morpholin-4-yl)pyrimidin-4-yl]-4-(1H-1,2,3-triazol-1-yl)-1H-pyrazol-5-olate” (Bayer Pharma Aktiengesellschaft, priority 2013, dated 2017)
Counter-ions that a name gives are not always drawn.

Columns and labels:
Format in all cases: physicochemical
[1] = Solubility of active ingredient salts in water
[2] = Stability with respect to uptake or release of water under varying atmospheric humidity; conditions: varying conditions of atmospheric humidity; compared with compound of the formula (II)
[3] = Compatibility with polyethylene glycol used in the film coating; conditions: at high active ingredient concentrations
[4] = Effect of light on active ingredient (I) or tablet cores; conditions: active ingredient (I) or the tablet cores

| Structure (SMILES) | Solubility in water at 25° C. [1] | solubility ([1]; 25° C.) | Stability with respect to uptake or release of water [2] | Compatibility with polyethylene glycol used in the film coating [3] | Effect of light [4] |
| --- | --- | --- | --- | --- | --- |
| [Al+3].[O-]c1c(-n2ccnn2)cnn1-c1cc(N2CCOCC2)ncn1.[O-]c1c(-n2ccnn2)cnn1-c1cc(N2CCOCC2)ncn1.[O-]c1c(-n2ccnn2)cnn1-c1cc(N2CCOCC2)ncn1 [Aluminium salt] | 6 mg/100 mL | – | – | – | – |
| Oc1c(-n2ccnn2)cnn1-c1cc(N2CCOCC2)ncn1 [Sodium salt (active ingredient (I)), sodium 1-[6-(morpholin-4-yl)pyrimidin-4-yl]-4-(1H-1,2,3-triazol-1-yl)-1H-pyrazol-5-olate] | – | 26.2 mg/mL | significantly higher stability with respect to uptake or release of water | physical incompatibility with polyethylene glycol | brown discolouration |
